Test results: US7304046B2, “Phosphoramide compounds” (priority 1999, dated 2007)

Columns and labels:
HT-29 cells = test: Test A: in vitro cytotoxicity, clonogenic survival of HT-29 cells; assay type: cell-based, human; details: 2 h drug treatment, colonies after 10 days, concentration at which there is a 1% cell survival
Description: (§1) Test A: In Vitro Cytotoxicity (Clonogenic Survival of HT-29 and BE Cells):
(§2) The human colon carcinoma cell line HT-29 was obtained from the American Type Culture Collection (ATCC), and the BE cell line was provided by Dr. D. Ross, University of Colorado. A modification of the procedure described by Miribelli et al Cancer Research, 1985, 45, 32–39 was used to determine the clonogenic survival of the cells. HT-29 and BE cells in exponential growth were suspended in unsupplemented Eagles MEM medium (10 mL) at a final density of 1.7–2×10^5 cells/mL. Unsupplemented medium contains Minimum Essential Medium (Gibco) and HEPES (0.02 M). The drug stock solutions (0.1–40 mM) were prepared using either ethanol or dimethyl sulfoxide as solvent. The maximum amount of DMSO or ethanol used in the drug treatments was 1% of the total volume. Appropriate volumes (6.5 to 100 μL) of the drug stock solution were added to five vials of the cell suspensions, to give five different final drug concentrations, and 100 μL of solvent was added to a sixth vial for a control. The treated cells were incubated for 2 h (37° C., 5% CO2). The cells were spun down and rinsed three times with supplemented medium (3 mL) and then diluted in 5 mL of supplemented medium. Supplemented medium is prepared by adding Fetal Bovine Serum (10%), gentamicin (0.05 mg/mL), L-glutamine (0.03 mg/mL), and sodium pyruvate (0.1 mM) to unsupplemented medium. The cells were counted using a Coulter Counter and then plated at 2–3 different densities for each drug concentration and incubated for 10 days. The colonies were stained with 0.5% crystal violet in 95% ethanol and those colonies comprised of 50 or more cells were counted using a microscope and pen-style counter. The LC99 of each compound (the concentration at which there is a 1% cell survival) was determined by plotting the log surviving fraction vs. drug concentration.

BE cells = test: Test A: in vitro cytotoxicity, clonogenic survival of BE cells; assay type: cell-based; details: 2 h drug treatment, colonies after 10 days, concentration at which there is a 1% cell survival
Description: as §1, §2

IGROV (ovarian) = test: Growth inhibition, MTT assay, IGROV; assay type: cell-based, human; details: 72-h drug exposure, read-out: IC50 growth inhibitory activity
Procedure: (§3) The growth inhibitory properties of representative compounds of the invention were also determined by evaluating their growth inhibitory activity against a series of human tumor cell lines using a 72-h drug exposure. Cell counts were measured using the MTT assay.

MDA231 (breast) = test: Growth inhibition, MTT assay, MDA231; assay type: cell-based, human; details: MDA231, 72-h drug exposure, read-out: IC50 growth inhibitory activity
Procedure: as §3

PC-3 (prostate) = test: Growth inhibition, MTT assay, PC-3; assay type: cell-based, human; details: PC-3, 72-h drug exposure, read-out: IC50 growth inhibitory activity
Procedure: as §3

HT-29 (colon) = test: Growth inhibition, MTT assay, HT-29; assay type: cell-based, human; details: HT-29, 72-h drug exposure, read-out: IC50 growth inhibitory activity
Procedure: as §3

PaCa-2 (pancreas) = test: Growth inhibition, MTT assay, PaCa-2; assay type: cell-based, human; details: PaCa-2, 72-h drug exposure, read-out: IC50 growth inhibitory activity
Procedure: as §3

A498 (kidney) = test: Growth inhibition, MTT assay, A498; assay type: cell-based, human; details: A498, 72-h drug exposure, read-out: IC50 growth inhibitory activity
Procedure: as §3

A549 (lung) = test: Growth inhibition, MTT assay, A549; assay type: cell-based, human; details: A549, 72-h drug exposure, read-out: IC50 growth inhibitory activity
Procedure: as §3

UMUC3 (bladder) = test: Growth inhibition, MTT assay, UMUC3; assay type: cell-based, human; details: UMUC3, 72-h drug exposure, read-out: IC50 growth inhibitory activity
Procedure: as §3

[1] = system: A4982LM cell line, a sub-line of the A498 human kidney carcinoma; test: Xenograft model, human tumor cells subcutaneously in nude mice; assay type: in vivo; details: Day 38, single dose of 25 mg/kg subcutaneously
Procedure: The cytotoxic properties of a compound of the invention can also be determined using in vivo pharmacological models which are well known to the art. For example, compound 16a was tested in a xenograft model. This assay consisted of injecting nude mice subcutaneously with human tumor cells. The tumors were allowed to grow until a measurable mass was present (22 days), and a single dose of 16a was administered subcutaneously. The tumor size was measured periodically and the growth inhibition of the tumor was determined. The A4982LM cell line, a sub-line of the A498 human kidney carcinoma, was used for the xenograft assay. The A4982LM sub-line, which has a high DT-diaphorase level (1010 nmol cytochrome c reduced/min/mg protein), was developed by implanting the A498 cell line in mice and collecting the lung metastases that formed from the original tumor.

[2] = Nucleophilic activation with sodium dimethyldithiocarbamate (DDTC) monitored by 31P NMR; assay type: physicochemical; details: DDTC 3 equiv, 3:4 THF:0.4 M cacodylate buffer, pH ~7.3, RT
Procedure: The quinone was dissolved in CH3CN (0.3 mL, or THF for 16a) and the activating agent (glutathione, or sodium dithionite) was dissolved in cacodylate buffer (0.4 mL, 0.4 M, pH 7.7). The buffer solution was added to the organic solution and the pH of the mixture was adjusted to ˜7.4. The reaction mixture was transferred to a 5-mm NMR tube, and the data acquisition was started (pulse delay 30 μs). Spectra were taken every 2.5 minutes for 0.5 h, then every 5 min for 0.5 h, then every 10 min for 1 h, and time points for each spectrum were assigned from the initiation of the reaction. Chemical shifts are reported relative to the TPPO reference. The temperature of the probe was maintained at 37° C., if necessary, using the Bruker variable temperature unit. The relative concentrations of the intermediates were determined by measuring the peak areas.
The Michael addition of sulfur nucleophiles to naphthoquinones is well known; and addition to the 3-position of the quinone might provide another pathway for phosphorodiamidate anion release. Two possible products could be predicted from the Michael addition of a nucleophile to the naphthoquinone. […] Activation of 16a with DDTC (3 equiv, 3:4 THF:0.4 M cacodylate buffer, pH˜7.3, RT) was monitored using ^31P NMR. […]

human tumor cell lines = test: Growth inhibition, MTT assay, series of human tumor cell lines (all cell lines); assay type: cell-based; details: all cell lines of Table 2, 72-h drug exposure
Procedure: as §3

In the case of `NP(=O)(OCC1=CC(=O)c2ccccc2C1=O)N(CCBr)CCBr` (stereo not shown) [Compound 16a, 2-(1,4-Naphthoquinonyl)methyl N,N-bis(2-bromoethyl) phosphorodiamidate], the LC99 (HT-29 cells) is reported as 7.8 µM, the LC99 (BE cells) is reported as 4.6 µM and the IC50 (IGROV (ovarian)) is reported as 18.9 µM. It also gave an IC50 (MDA231 (breast)) of 14.7 µM, an IC50 (PC-3 (prostate)) of 9.19 µM and an IC50 (HT-29 (colon)) of 15.3 µM. The IC50 (PaCa-2 (pancreas)) was 4.42 µM, the IC50 (A498 (kidney)) was 15.6 µM and the IC50 (A549 (lung)) was 4.58 µM. The IC50 (UMUC3 (bladder)) was 2.82 µM, the “growth inhibition of the tumor” value [1] was 40% and the “time until quinone resonance disappeared and was replaced by phosphorodiamidate anion resonance” value [2] was at most 5 min. For the same compound, the “IC50 in words, against all cell lines” value (human tumor cell lines) was “low micromolar range”.
